Results as given in patent US20120301895A1, “METHODS OF MODULATING BINDING OF SON OF SEVENLESS TO PHOSPHATIDIC ACID AND IDENTIFYING COMPOUNDS THAT MODULATE SUCH BINDING” (THE RESEARCH FOUNDATION OF STATE UNIVERSITY OF NEW YORK, priority 2007, published 2012).

Tests used:
Type in all cases: cell-based, human
[1] = test system: PLD activity in 786-O cells; assay: PLD activity in 786-O cells; conditions: no activated Ras
Source text: The PLD activity elevated in response to stress in the MDA-MB-231 cells was dependent on Ras in the MDA-MB-231, and also in the Calu1, and T24 cancer cells (Shi et al., “Elevated Phospholipase D Activity in Human Cancer Cells with Activating Ras Mutations Provides Survival Signal,” Cancer Lett. 258:268-75 (2007), which is hereby incorporated by reference in its entirety). […] This is interesting in that there is an activated K-Ras gene in the MDA-MB-231 cells. Similarly, there are activating mutations to Ras genes in both the Calu1 and T24 cells. It was recently reported that the PLD activity in the T24 cells, where H-Ras is activated, is dependent on the expression of H-Ras; and the PLD activity in the Calu-1 cells, where K-Ras is activated, is dependent on the expression of K-Ras (Shi et al., “Elevated Phospholipase D Activity in Human Cancer Cells with Activating Ras Mutations Provides Survival Signal,” Cancer Lett. 258:268-75 (2007), which is hereby incorporated by reference in its entirety). […] However, it is also possible that the increased GTP bound Ras represents activation of the non-mutated Ras—either the Ras protein encoded by the non-mutated wild type allele or other Ras isoforms. In the case of the MDA-MD-231 that would mean that H-Ras was being activated or the wild type K-Ras encoded by the non-mutant allele. […]

[2] = test system: PLD activity in MDA-MB-231 cells; assay: In vivo PLD activity (transphosphatidylation, PBt) in MDA-MB-231 cells; conditions: honokiol 20 μM, 4 hr
Protocol: In FIG. 13A, MDA-MB-231 cells were plated as in FIGS. 12A-C and then shifted to either 10% serum or 0.5% serum overnight as indicated. Honokiol (20 μM) or control ethanol was then added for 4 hr as indicated, at which time the cells were harvested and the levels of PBt were determined as in FIGS. 12A-C. The experiment shown is representative of at least three independent experiments. In FIG. 13B, the effect of honokiol on the activity of PLD isoforms was measured using exogenous substrate assay as described previously (Henage et al., “Kinetic Analysis of a Mammalian Phospholipase D: Allosteric Modulation by Monomeric GTPases, Protein Kinase C, and Polyphosphoinositides,” J. Biol. Chem. 281:3408-17 (2006), which is hereby incorporated by reference in its entirety). […] The amount of background was determined and subtracted using a bovine serum albumin standard. […]
For in vivo PLD activity, cells were plated in 60 mm culture dishes in DMEM with 10% serum at a density that would allow them to grow to about 80% confluence after 2 days, then cells were shifted to DMEM containing 0.5% or 10% serum as indicated in the figure legends overnight. […] Briefly, PLD activity was measured by the release of [methyl-^3H] choline from [choline-methyl-^3H]dipalmitoyl-phosphatidylcholine. […]

786-0 cells = assay: Apoptosis in 786-O cells
Protocol: Cell viability was determined by trypan blue exclusion. After various treatments, cells were harvested, washed, and treated with trypan blue at a concentration of 0.4% w/v. After 10 min, trypan blue uptake (dead cells) was determined by counting on a hemocytometer. […] The effect of honokiol on cell viability and cleavage of the caspase 3 substrate poly-(ADP-ribose) polymerase (“PARP”)—an indicator of apoptotic cell death—was examined in the MDA-MB-231 and 786-0 cells. The effect of honokiol on cell viability and PARP cleavage in 0.5% serum was examined after 4 hr and 24 hr honokiol treatment and in 10% serum after 24 hr honokiol treatment in the MDA-MB-231 cells.

## C=CCc1ccc(O)c(-c2ccc(O)c(CC=C)c2)c1 [honokiol, Honokiol]
[1]
  PLD activity: blocks
[2]; 0.5% serum
  PLD activity in cells in 0.5% serum (stress-induced): completely suppressed
[2]; 10% serum
  basal PLD activity in cells maintained in 10% serum: little effect
786-0 cells
  apoptosis: induced apoptosis
